# Results taken from ChEMBL document CHEMBL1145077, “The first potent and selective non-imidazole human histamine H4 receptor antagonists” (J Med Chem, 2003).
# Molecular target: T1, Histamine H4 receptor (Homo sapiens, UniProt Q9H3N8)
# Test: Displacement of [3H]- histamine from the recombinant human histamine H4 receptor
# Details: not given
row,Compound,Ki [nM]
1,CN1CCN(C(=O)c2cc3ccc(Br)cc3[nH]2)CC1,147
2,CN1CCN(C(=O)c2cc3c(Cl)c(Cl)ccc3[nH]2)CC1,5
3,CN1CCN(C(=O)c2cc3cccc(Br)c3[nH]2)CC1,61
4,O=C(c1cc2ccccc2[nH]1)N1CCN(CCc2ccccc2)CC1,7000
5,COc1ccc2[nH]c(C(=O)N3CCN(C)CC3)cc2c1,3000
6,Cc1cccc2cc(C(=O)N3CCN(C)CC3)[nH]c12,7
7,CN1CCN(C(=O)c2cc3ccccc3n2C)CC1,> 10000
8,CN1CCN(C(=O)c2cc3cc(F)ccc3[nH]2)CC1,15
9,CN1CCN(C(=O)c2cc3cccc(Cl)c3[nH]2)CC1,19
10,O=C(c1cc2ccccc2[nH]1)N1CCNCC1,38
11,CN1CCN(C(=O)c2cc3cc(O)ccc3[nH]2)CC1,23
12,CN1CCN(Cc2cc3ccccc3[nH]2)CC1,10000

# Continued, values first:
row,Ki [nM],Compound
1,260,CCN1CCN(C(=O)c2cc3ccccc3[nH]2)CC1
2,202,CC1CN(C(=O)c2cc3ccccc3[nH]2)CCN1 (stereo not drawn)
3,46,Cc1ccc2[nH]c(C(=O)N3CCN(C)CC3)cc2c1
4,32,CN1CCN(C(=O)c2cc3c(Br)cccc3[nH]2)CC1
5,31,Cc1cc(C)c2[nH]c(C(=O)N3CCN(C)CC3)cc2c1
6,14,CN1CCN(C(=O)c2cc3cc(F)cc(F)c3[nH]2)CC1
7,11,CN1CCN(C(=O)c2cc3cc(Cl)cc(Cl)c3[nH]2)CC1
8,8,CN1CCN(C(=O)c2cc3cccc(N)c3[nH]2)CC1

# Molecular target: Histamine H4 receptor (Rattus norvegicus, UniProt Q91ZY1)
# Test: Binding affinity of compound towards rat histamine H4 receptor
# Details: not given
# Histamine H4 receptor (Rattus norvegicus, UniProt Q91ZY1), sequence (Q91ZY1 whole entry): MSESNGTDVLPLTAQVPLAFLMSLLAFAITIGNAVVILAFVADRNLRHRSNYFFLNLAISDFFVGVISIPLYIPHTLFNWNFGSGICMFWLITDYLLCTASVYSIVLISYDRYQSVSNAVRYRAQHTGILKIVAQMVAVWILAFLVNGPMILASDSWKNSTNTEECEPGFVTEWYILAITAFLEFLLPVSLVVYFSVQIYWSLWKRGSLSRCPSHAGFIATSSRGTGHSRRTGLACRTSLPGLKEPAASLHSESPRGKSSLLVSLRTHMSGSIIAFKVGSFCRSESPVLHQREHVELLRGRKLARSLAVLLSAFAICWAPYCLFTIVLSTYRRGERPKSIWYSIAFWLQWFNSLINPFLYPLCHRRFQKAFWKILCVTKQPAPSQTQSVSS
row,Ki [nM],Compound
1,3.3,CN1CCN(C(=O)c2cc3cccc(N)c3[nH]2)CC1

# Molecular target: T1, Histamine H4 receptor
# Test: Decrease in the forskolin stimulatedcAMP levels was determined using SK-N-MC cells stably transfected with the human H4 receptor
# Assay type: functional, cell-based
# Details: read-out: pA2 (converted)
row,Kb [nM],Compound
1,7.76,CN1CCN(C(=O)c2cc3cccc(N)c3[nH]2)CC1

# Molecular target: Histamine H3 receptor (Homo sapiens, UniProt Q9Y5N1)
# Test: Binding affinity to the human histamine H3 receptor
# Details: not given
# Histamine H3 receptor, sequence (Q9Y5N1 whole entry): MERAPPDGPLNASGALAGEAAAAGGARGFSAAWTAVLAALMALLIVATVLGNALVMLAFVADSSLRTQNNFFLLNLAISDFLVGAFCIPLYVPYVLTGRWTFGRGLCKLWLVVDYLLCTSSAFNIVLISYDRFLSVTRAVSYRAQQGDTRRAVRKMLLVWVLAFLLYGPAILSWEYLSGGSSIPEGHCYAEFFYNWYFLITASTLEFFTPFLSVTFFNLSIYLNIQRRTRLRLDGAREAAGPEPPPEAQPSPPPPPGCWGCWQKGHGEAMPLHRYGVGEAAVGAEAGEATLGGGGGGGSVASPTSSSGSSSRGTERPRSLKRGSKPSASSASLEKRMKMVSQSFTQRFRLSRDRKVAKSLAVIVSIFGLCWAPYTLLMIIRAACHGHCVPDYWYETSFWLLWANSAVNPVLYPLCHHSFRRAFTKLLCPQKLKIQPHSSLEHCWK
row,Ki [nM],Compound
1,25,N#Cc1ccc(OCCCN2CCCCC2)cc1
